Test results taken from US9365551B2, “2-(benzyloxy) benzamides as LRRK2 kinase inhibitors” (Glaxo Group Limited, priority 2010, dated 2016).

What was measured:
[1] = biological target: T1, 6His-Tev-LRRK2 (1326-2527) (Homo sapiens, UniProt Q5S007); assay: LRRK2 peptide substrate assay; format: biochemical; conditions: mean pIC50 of multiple test results; stated as threshold; read-out: pIC50 in the LRRK2 peptide substrate assay (bounds) (converted)
T1 construct: A LRRK2 cDNA encoding residues 1326-2527 was received from Dundee University; made in house; host or cells: Spodoptera frugiperda (Sf9) insect cells, baculovirus (pFB-HTb)
T1 sequence (Q5S007 1326-2527): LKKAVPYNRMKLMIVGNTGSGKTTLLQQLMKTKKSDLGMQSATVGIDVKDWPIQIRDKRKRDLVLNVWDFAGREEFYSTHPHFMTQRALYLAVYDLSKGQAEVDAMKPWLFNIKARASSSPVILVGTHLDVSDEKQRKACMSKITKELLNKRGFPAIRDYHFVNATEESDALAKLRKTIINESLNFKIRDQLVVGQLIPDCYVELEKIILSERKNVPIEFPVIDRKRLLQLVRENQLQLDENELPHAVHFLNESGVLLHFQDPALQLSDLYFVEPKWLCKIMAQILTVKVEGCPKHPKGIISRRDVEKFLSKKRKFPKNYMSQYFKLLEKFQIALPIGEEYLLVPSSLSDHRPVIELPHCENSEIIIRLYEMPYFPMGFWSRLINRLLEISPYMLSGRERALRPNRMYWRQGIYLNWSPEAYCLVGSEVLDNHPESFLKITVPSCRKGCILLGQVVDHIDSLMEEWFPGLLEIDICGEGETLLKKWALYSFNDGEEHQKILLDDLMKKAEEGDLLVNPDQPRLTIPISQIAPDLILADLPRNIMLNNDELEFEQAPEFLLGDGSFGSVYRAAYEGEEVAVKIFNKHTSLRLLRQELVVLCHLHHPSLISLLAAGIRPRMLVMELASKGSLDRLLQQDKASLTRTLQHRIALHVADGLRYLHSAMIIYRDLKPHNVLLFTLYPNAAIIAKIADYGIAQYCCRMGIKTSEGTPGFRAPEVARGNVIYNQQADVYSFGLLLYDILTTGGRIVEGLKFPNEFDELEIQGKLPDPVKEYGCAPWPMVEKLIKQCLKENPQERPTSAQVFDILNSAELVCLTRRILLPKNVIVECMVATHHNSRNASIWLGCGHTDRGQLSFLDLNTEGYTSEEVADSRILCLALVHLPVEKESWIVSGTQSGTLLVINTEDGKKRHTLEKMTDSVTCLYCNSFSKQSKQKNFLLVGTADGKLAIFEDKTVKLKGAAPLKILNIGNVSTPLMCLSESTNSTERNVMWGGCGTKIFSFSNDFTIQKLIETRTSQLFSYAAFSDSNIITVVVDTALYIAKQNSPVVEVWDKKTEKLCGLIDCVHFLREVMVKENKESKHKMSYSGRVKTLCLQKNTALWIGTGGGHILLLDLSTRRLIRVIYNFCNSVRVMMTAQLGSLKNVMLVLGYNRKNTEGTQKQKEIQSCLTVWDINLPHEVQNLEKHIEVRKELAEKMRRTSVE
Method in brief: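 Compound (1:4 series, top 30 μM final) preincubated 30 min at RT with the enzyme solution (80 nM) in pH 7.2 Hepes, 10 mM MgCl2 buffer. Reaction was started with substrate solution (2 μM Biotin-LRRKtide, ATP at Km) and run 1–2 h at RT. Phospho-peptide detected by TR-FRET (Eu/APC, 665/620 nm) after EDTA stop.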

[2] = biological target: T1, 6His-Tev-LRRK2 (1326-2527); assay: LRRK2 AlphaScreen desensitised protein substrate assay; format: biochemical; conditions: mean pIC50 of multiple test results; stated as threshold; read-out: pIC50 in the LRRK2 alphascreen desensitised protein substrate assay (bounds) (converted)
Method in brief: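 Compounds (1:4 series, top final 30 μM) were preincubated 30 min at room temperature with 6His-Tev-LRRK2 (1326-2527) solution (80 nM) in Hepes pH 7.2, 10 mM MgCl2. Substrate solution held 200 nM GST-PS-Moesin (400-577) and 2 mM ATP, and the reaction ran 20 min. Phospho-Moesin Thr558 was read by AlphaLisa antibody-bead detection after 2 h.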

IC50 [1] [µM]	SMILES	IC50 [2] [µM]
≤ 1.26	Cn1cc(-c2cc(OCc3ccc(F)cc3)c(C(=O)Nc3ccnnc3)cc2CN2CCOCC2)cn1 [Example 14, 2-{[(4-Fluorophenyl)methyl]oxy}-4-(1-methyl-1H-pyrazol-4-yl)-5-(4-morpholinylmethyl)-N-4-pyridazinylbenzamide]	≤ 25.1
≤ 0.1	CN1CCN(C(=O)c2cc(OCc3ccccc3)c(C(=O)Nc3ccccc3)cc2Cl)CC1 [Example 57, 2-(benzyloxy)-5-chloro-4-(4-methylpiperazine-1-carbonyl)-N-phenylbenzamide]	≤ 25.1
